Test results from publication PMC5218480 (PLoS ONE, 2017).

System: MV-4-11 cells
Experiment: Gene expression microarray analysis (Affymetrix PrimeView) and GSEA
Type: cell-based, human
Design: RFU PODN (11730768_x_at) / Fold change /veh PODN (11730768_x_at) / RFU LINC00158 (11744669_a_at) / Fold change /veh LINC00158 (11744669_a_at) / RFU DUSP10 (11751237_a_at) / Fold change /veh DUSP10 (11751237_a_at) / RFU ID3 (11757404_x_at) / Fold change /veh ID3 (11757404_x_at) / RFU PLEKHG5 (11737974_s_at) / Fold change /veh PLEKHG5 (11737974_s_at) / RFU LRRC4B (11730491_at) / Fold change /veh LRRC4B (11730491_at) / RFU GIMAP4 (11747438_a_at) / Fold change /veh GIMAP4 (11747438_a_at) / RFU KRT8 (11758183_x_at) / Fold change /veh KRT8 (11758183_x_at) / RFU CNN1 (11734310_a_at) / Fold change /veh CNN1 (11734310_a_at) / RFU VPS37D (11726825_at) / Fold change /veh VPS37D (11726825_at) / RFU C10orf10 (11716522_x_at) / Fold change /veh C10orf10 (11716522_x_at) / RFU KIR2DL2 /// KIR2DL4 /// KIR2DL5A /// KIR2DL5B /// KIR2DS1 /// KIR2DS2 /// KIR2DS3 /// KIR2DS4 /// KIR3DL3 /// KIR3DL3 /// KIR3DS1 (11738374_at) / Fold change /veh KIR2DL2 /// KIR2DL4 /// KIR2DL5A /// KIR2DL5B /// KIR2DS1 /// KIR2DS2 /// KIR2DS3 /// KIR2DS4 /// KIR3DL3 /// KIR3DL3 /// KIR3DS1 (11738374_at) / RFU C1QL1 (11718748_at) / Fold change /veh C1QL1 (11718748_at) / RFU TMPRSS4 (11747572_a_at) / Fold change /veh TMPRSS4 (11747572_a_at) / RFU HAMP (11756126_x_at) / Fold change /veh HAMP (11756126_x_at) / RFU RNFT2 (11725882_a_at) / Fold change /veh RNFT2 (11725882_a_at) / RFU NR4A2 (11747474_a_at) / Fold change /veh NR4A2 (11747474_a_at) / RFU ABCC12 (11746883_a_at) / Fold change /veh ABCC12 (11746883_a_at) / RFU TMEM136 (11760407_x_at) / Fold change /veh TMEM136 (11760407_x_at) / RFU CLDN22 /// WWC2 (11732394_at) / Fold change /veh CLDN22 /// WWC2 (11732394_at) / RFU HLA-DPB1 (11760878_x_at) / Fold change /veh HLA-DPB1 (11760878_x_at) / RFU SPINT1 (11716480_a_at) / Fold change /veh SPINT1 (11716480_a_at) / RFU GAP43 (11754022_s_at) / Fold change /veh GAP43 (11754022_s_at) / RFU A4GNT (11735810_at) / Fold change /veh A4GNT (11735810_at) / RFU PRB3 (11715151_x_at) / Fold change /veh PRB3 (11715151_x_at) / RFU TUBB4B (11761932_at) / Fold change /veh TUBB4B (11761932_at) / RFU CAPN14 (11732068_a_at) / Fold change /veh CAPN14 (11732068_a_at) / RFU TMCC2 (11721928_a_at) / Fold change /veh TMCC2 (11721928_a_at) / RFU IRGQ (11745062_a_at) / Fold change /veh IRGQ (11745062_a_at) / RFU FAM174B (11720279_a_at) / Fold change /veh FAM174B (11720279_a_at) / RFU TMPRSS4 (11748680_a_at) / Fold change /veh TMPRSS4 (11748680_a_at) / RFU FAM212B (11763350_a_at) / Fold change /veh FAM212B (11763350_a_at) / RFU PLEKHG5 (11743358_a_at) / Fold change /veh PLEKHG5 (11743358_a_at) / RFU ZSCAN30 (11745921_a_at) / Fold change /veh ZSCAN30 (11745921_a_at) / RFU CMKLR1 (11741424_a_at) / Fold change /veh CMKLR1 (11741424_a_at) / RFU LOC101060620 /// MAPK8IP1 (11723275_at) / Fold change /veh LOC101060620 /// MAPK8IP1 (11723275_at) / RFU SPTSSB (11747773_x_at) / Fold change /veh SPTSSB (11747773_x_at) / RFU PRSS12 (11739890_at) / Fold change /veh PRSS12 (11739890_at) / RFU BIN1 (11741810_x_at) / Fold change /veh BIN1 (11741810_x_at) / RFU WNT11 (11732464_a_at) / Fold change /veh WNT11 (11732464_a_at) / RFU C10orf10 (11716521_a_at) / Fold change /veh C10orf10 (11716521_a_at) / RFU C5orf56 (11738089_at) / Fold change /veh C5orf56 (11738089_at) / RFU CYB561 (11721691_x_at) / Fold change /veh CYB561 (11721691_x_at) / RFU ANKRD19P (11752326_a_at) / Fold change /veh ANKRD19P (11752326_a_at) / RFU OR2T12 /// OR2T33 /// OR2T8 (11738714_s_at) / Fold change /veh OR2T12 /// OR2T33 /// OR2T8 (11738714_s_at) / RFU VCAN (11748164_a_at) / Fold change /veh VCAN (11748164_a_at) / RFU JSRP1 (11732532_at) / Fold change /veh JSRP1 (11732532_at) / RFU KRTAP10-11 (11738290_x_at) / Fold change /veh KRTAP10-11 (11738290_x_at) / RFU MYO3A (11730013_a_at) / Fold change /veh MYO3A (11730013_a_at) / RFU EBF3 (11725865_a_at) / Fold change /veh EBF3 (11725865_a_at) / RFU CAMK2N1 (11719241_x_at) / Fold change /veh CAMK2N1 (11719241_x_at) / RFU C5orf56 (11738088_a_at) / Fold change /veh C5orf56 (11738088_a_at) / RFU OLFML3 (11715873_a_at) / Fold change /veh OLFML3 (11715873_a_at) / RFU LOC100653217 /// NTM (11731650_a_at) / Fold change /veh LOC100653217 /// NTM (11731650_a_at) / RFU MAPK11 (11762145_a_at) / Fold change /veh MAPK11 (11762145_a_at) / RFU FIZ1 (11724087_x_at) / Fold change /veh FIZ1 (11724087_x_at) / RFU OASL (11726364_x_at) / Fold change /veh OASL (11726364_x_at) / RFU SOX15 (11748057_x_at) / Fold change /veh SOX15 (11748057_x_at) / RFU CD79A (11719716_a_at) / Fold change /veh CD79A (11719716_a_at) / RFU HIST1H1D (11736915_at) / Fold change /veh HIST1H1D (11736915_at) / RFU CASKIN2 (11723855_a_at) / Fold change /veh CASKIN2 (11723855_a_at) / RFU LOC730098 (11760151_x_at) / Fold change /veh LOC730098 (11760151_x_at) / RFU OR4N2 (11742367_at) / Fold change /veh OR4N2 (11742367_at) / RFU PRRT2 (11749266_a_at) / Fold change /veh PRRT2 (11749266_a_at) / RFU SNX32 (11753110_a_at) / Fold change /veh SNX32 (11753110_a_at) / RFU CDHR5 (11726645_a_at) / Fold change /veh CDHR5 (11726645_a_at) / RFU RCAN1 (11760418_a_at) / Fold change /veh RCAN1 (11760418_a_at) / RFU FAM167A (11723789_a_at) / Fold change /veh FAM167A (11723789_a_at) / RFU FAM26E (11764081_at) / Fold change /veh FAM26E (11764081_at) / RFU ISYNA1 (11749810_s_at) / Fold change /veh ISYNA1 (11749810_s_at) / RFU ACY1 (11761880_at) / Fold change /veh ACY1 (11761880_at) / RFU 11764098_at / Fold change /veh 11764098_at / RFU SAMD14 (11745864_x_at) / Fold change /veh SAMD14 (11745864_x_at) / RFU NPB (11741838_a_at) / Fold change /veh NPB (11741838_a_at) / RFU TMPRSS6 (11731388_a_at) / Fold change /veh TMPRSS6 (11731388_a_at) / RFU KRTAP10-2 (11738614_at) / Fold change /veh KRTAP10-2 (11738614_at) / RFU ARHGAP8 /// PRR5-ARHGAP8 (11727945_x_at) / Fold change /veh ARHGAP8 /// PRR5-ARHGAP8 (11727945_x_at) / RFU KRTAP5-7 /// NADSYN1 (11734609_at) / Fold change /veh KRTAP5-7 /// NADSYN1 (11734609_at) / RFU RASL12 (11751679_a_at) / Fold change /veh RASL12 (11751679_a_at) / RFU CDKN2B (11736163_a_at) / Fold change /veh CDKN2B (11736163_a_at) / RFU PRF1 (11729649_at) / Fold change /veh PRF1 (11729649_at) / RFU, ZNF638 /// ZNF638-IT1 / Fold change vs veh, ZNF638 /// ZNF638-IT1 / RFU, PANK3 / Fold change vs veh, PANK3 / RFU, SH3YL1 / Fold change vs veh, SH3YL1 / RFU, ZEB2 / Fold change vs veh, ZEB2 / RFU, NRIP1 / Fold change vs veh, NRIP1 / RFU, PTTG1IP / Fold change vs veh, PTTG1IP / RFU, CAPN2 / Fold change vs veh, CAPN2 / RFU, MED14 / Fold change vs veh, MED14 / RFU, SNORA58 / Fold change vs veh, SNORA58 / RFU, C1orf63 / Fold change vs veh, C1orf63 / RFU, LRRFIP1 / Fold change vs veh, LRRFIP1 / RFU, NDUFAF7 / Fold change vs veh, NDUFAF7 / RFU, SLC12A2 / Fold change vs veh, SLC12A2 / RFU, IBTK / Fold change vs veh, IBTK / RFU, ESF1 / Fold change vs veh, ESF1 / Fold change vs veh, TMEM50B / RFU, TAOK1 / Fold change vs veh, TAOK1 / RFU, ACBD3 / Fold change vs veh, ACBD3 / RFU, TMA16 / Fold change vs veh, TMA16 / RFU, RWDD3 / Fold change vs veh, RWDD3 / RFU, BCAT1 / Fold change vs veh, BCAT1 / RFU, EDEM3 / Fold change vs veh, EDEM3 / RFU, TMEM33 / Fold change vs veh, TMEM33 / RFU, WDR75 / Fold change vs veh, WDR75 / RFU, AHCTF1 / Fold change vs veh, AHCTF1 / RFU, TFRC / Fold change vs veh, TFRC / RFU, ZDHHC17 / Fold change vs veh, ZDHHC17 / RFU, NOM1 / Fold change vs veh, NOM1 / RFU, ARL8B / Fold change vs veh, ARL8B / RFU, ZBTB11 / Fold change vs veh, ZBTB11 / RFU, TAMM41 / Fold change vs veh, TAMM41 / RFU, KIAA1704 /// LOC100996395 / Fold change vs veh, KIAA1704 /// LOC100996395 / RFU, ING1 / Fold change vs veh, ING1 / RFU, TRMT61B / Fold change vs veh, TRMT61B / RFU, FUBP3 / Fold change vs veh, FUBP3 / RFU, TP53 / Fold change vs veh, TP53 / RFU, TNKS2 / Fold change vs veh, TNKS2 / RFU, ZFP14 / Fold change vs veh, ZFP14 / RFU, ACTR2 / Fold change vs veh, ACTR2 / RFU, PPP3R1 / Fold change vs veh, PPP3R1 / RFU, PIK3R1 / Fold change vs veh, PIK3R1 / RFU, HNRNPA1 / Fold change vs veh, HNRNPA1 / RFU, RNF170 / Fold change vs veh, RNF170 / RFU, ZNF28 / Fold change vs veh, ZNF28 / RFU, RNGTT / Fold change vs veh, RNGTT / RFU, OGT / Fold change vs veh, OGT / RFU, BRD1 / Fold change vs veh, BRD1 / RFU, MARS / Fold change vs veh, MARS / RFU, ZNF655 / Fold change vs veh, ZNF655 / RFU, FAHD1 / Fold change vs veh, FAHD1 / RFU, BDP1 / Fold change vs veh, BDP1 / RFU, LRRCC1 / Fold change vs veh, LRRCC1 / RFU, ARID1A / Fold change vs veh, ARID1A / RFU, ZNF146 / Fold change vs veh, ZNF146 / RFU, ZNF330 / Fold change vs veh, ZNF330 / RFU, GPN3 / Fold change vs veh, GPN3 / RFU, C9orf123 / Fold change vs veh, C9orf123 / RFU, N4BP2L2 / Fold change vs veh, N4BP2L2 / RFU, ARFIP1 / Fold change vs veh, ARFIP1 / RFU, FAM179B / Fold change vs veh, FAM179B / RFU, BCL10 / Fold change vs veh, BCL10 / RFU, UHRF1BP1L / Fold change vs veh, UHRF1BP1L / RFU, BET1 / Fold change vs veh, BET1 / RFU, CNOT2 / Fold change vs veh, CNOT2 / RFU, ZNF268 / Fold change vs veh, ZNF268 / Fold change vs veh, ZNF507 / RFU, DGCR2 / Fold change vs veh, DGCR2 / RFU, WDSUB1 / Fold change vs veh, WDSUB1 / Fold change vs veh, HSP90B1 /// MIR3652 / RFU, ADSS / Fold change vs veh, ADSS / RFU, GK / Fold change vs veh, GK / RFU, ZNF148 / Fold change vs veh, ZNF148 / RFU, TAF9 / Fold change vs veh, TAF9 / RFU, SLC1A5 / Fold change vs veh, SLC1A5 / RFU, SLMO2 / Fold change vs veh, SLMO2 / RFU, ABCC4 / Fold change vs veh, ABCC4 / RFU, LOC101060439 /// RAP1B / Fold change vs veh, LOC101060439 /// RAP1B / RFU, RFX7 / Fold change vs veh, RFX7 / RFU, GTPBP10 / Fold change vs veh, GTPBP10 / RFU, CNEP1R1 / Fold change vs veh, CNEP1R1 / RFU, BIVM-ERCC5 /// ERCC5 / Fold change vs veh, BIVM-ERCC5 /// ERCC5 / RFU, ILF3 / Fold change vs veh, ILF3 / RFU 11762660_at / Fold change /veh 11762660_at / RFU VCAN (11757783_s_at) / Fold change /veh VCAN (11757783_s_at) / RFU DDX43 (11728927_at) / Fold change /veh DDX43 (11728927_at) / RFU KRT8 (11758188_x_at) / Fold change /veh KRT8 (11758188_x_at) / RFU NKD1 (11759106_at) / Fold change /veh NKD1 (11759106_at) / RFU SRD5A1 (11742802_a_at) / Fold change /veh SRD5A1 (11742802_a_at) / RFU TPSAB1 /// TPSB2 (11721975_s_at) / Fold change /veh TPSAB1 /// TPSB2 (11721975_s_at) / RFU GSTM3 (11746129_a_at) / Fold change /veh GSTM3 (11746129_a_at) / RFU IL23R (11737362_x_at) / Fold change /veh IL23R (11737362_x_at) / RFU TMEM51 (11727254_a_at) / Fold change /veh TMEM51 (11727254_a_at) / RFU PIWIL2 (11732686_x_at) / Fold change /veh PIWIL2 (11732686_x_at) / RFU ORM1 (11744905_x_at) / Fold change /veh ORM1 (11744905_x_at) / RFU CCDC152 (11743942_at) / Fold change /veh CCDC152 (11743942_at) / RFU ECM1 (11717891_a_at) / Fold change /veh ECM1 (11717891_a_at) / RFU IL23R (11748794_a_at) / Fold change /veh IL23R (11748794_a_at) / RFU TNFAIP8L3 (11732012_x_at) / Fold change /veh TNFAIP8L3 (11732012_x_at) / RFU MBOAT4 (11741988_at) / Fold change /veh MBOAT4 (11741988_at) / RFU 11764193_at / Fold change /veh 11764193_at / RFU TMEM53 (11763286_at) / Fold change /veh TMEM53 (11763286_at) / RFU MAGEB2 (11727129_at) / Fold change /veh MAGEB2 (11727129_at) / RFU TMEM200A (11744735_a_at) / Fold change /veh TMEM200A (11744735_a_at) / RFU CCDC152 (11751479_a_at) / Fold change /veh CCDC152 (11751479_a_at) / RFU FAM211A (11726209_a_at) / Fold change /veh FAM211A (11726209_a_at) / RFU RGS16 (11746705_a_at) / Fold change /veh RGS16 (11746705_a_at) / RFU VCAN (11755009_s_at) / Fold change /veh VCAN (11755009_s_at) / RFU RHOB (11743442_s_at) / Fold change /veh RHOB (11743442_s_at) / RFU RGS16 (11720943_a_at) / Fold change /veh RGS16 (11720943_a_at) / RFU RGS16 (11720944_at) / Fold change /veh RGS16 (11720944_at) / RFU, VPS4B / Fold change vs veh, VPS4B / RFU, CREB1 / Fold change vs veh, CREB1 / RFU, DNAJC13 / Fold change vs veh, DNAJC13 / RFU, GNAQ / Fold change vs veh, GNAQ / RFU, CDK5R1 / Fold change vs veh, CDK5R1 / RFU, ZRANB3 / Fold change vs veh, ZRANB3 / RFU, CUL4A / Fold change vs veh, CUL4A / RFU, CCNY / Fold change vs veh, CCNY / RFU, UFL1 / Fold change vs veh, UFL1 / RFU, COG3 / Fold change vs veh, COG3 / RFU, DIAPH2 / Fold change vs veh, DIAPH2 / RFU, SKA2 / Fold change vs veh, SKA2 / RFU, AFF3 / Fold change vs veh, AFF3 / RFU, LMF1 / Fold change vs veh, LMF1 / RFU, IPO11 / Fold change vs veh, IPO11 / RFU, DFFB / Fold change vs veh, DFFB / RFU, FOXP1 / Fold change vs veh, FOXP1 / RFU, CARD8 / Fold change vs veh, CARD8 / RFU, STRN3 / Fold change vs veh, STRN3 / RFU, ADK / Fold change vs veh, ADK / RFU, RASSF2 / Fold change vs veh, RASSF2 / RFU, WIPF1 / Fold change vs veh, WIPF1 / RFU, LARP1B / Fold change vs veh, LARP1B / RFU, RASA1 / Fold change vs veh, RASA1 / RFU, RB1 / Fold change vs veh, RB1 / RFU, PPFIA1 / Fold change vs veh, PPFIA1 / RFU, MAT2A / Fold change vs veh, MAT2A / RFU, CCT5 / Fold change vs veh, CCT5 / RFU, WDR92 / Fold change vs veh, WDR92 / RFU, CUX1 / Fold change vs veh, CUX1 / RFU, TTC7A / Fold change vs veh, TTC7A / RFU, TMEM135 / Fold change vs veh, TMEM135 / RFU, DEPTOR / Fold change vs veh, DEPTOR / RFU, CPM / Fold change vs veh, CPM / RFU, DNAJB6 / Fold change vs veh, DNAJB6 / RFU, CACNA2D3 / Fold change vs veh, CACNA2D3 / RFU, DTX4 / Fold change vs veh, DTX4 / RFU, TFCP2 / Fold change vs veh, TFCP2 / RFU, GMCL1 /// GMCL1P1 / Fold change vs veh, GMCL1 /// GMCL1P1 / RFU, AEBP2 / Fold change vs veh, AEBP2 / RFU, SNHG1 /// SNORD22 /// SNORD25 /// SNORD26 /// SNORD27 /// SNORD28 /// SNORD29 /// SNORD31 / Fold change vs veh, SNHG1 /// SNORD22 /// SNORD25 /// SNORD26 /// SNORD27 /// SNORD28 /// SNORD29 /// SNORD31 / Fold change (Aza/veh), C12orf56 (ProbeSet 11735607_a_at) / Fold change (ACY-1035/veh), C12orf56 (ProbeSet 11735607_a_at) / Fold change (Aza/veh), FGFR1OP (ProbeSet 11751329_s_at) / Fold change (ACY-1035/veh), FGFR1OP (ProbeSet 11751329_s_at) / Fold change (Aza/veh), VPS36 (ProbeSet 11739960_a_at) / Fold change (ACY-1035/veh), VPS36 (ProbeSet 11739960_a_at) / RFU SYPL1 (11715823_x_at) / Fold change /veh SYPL1 (11715823_x_at) / RFU IGFBP7 (11715501_s_at) / Fold change /veh IGFBP7 (11715501_s_at) / RFU REEP3 (11722064_at) / Fold change /veh REEP3 (11722064_at) / RFU IGLL1 (11728026_x_at) / Fold change /veh IGLL1 (11728026_x_at): dose or concentration left out as unconfirmed
Settings: ProbeSet 11739263_x_at; LIST D

Question: How did the “Fold change vs veh, VPS4B” value turn out when Nc1ncn([C@@H]2O[C@H](CO)[C@@H](O)[C@H]2O)c(=O)n1 [azacitidine] was run?
Answer: 0.80
